According to PubChem BioAssay AID2060502 (Molecular Pharmacology Branch, DTP, NCI, 2025):

Test system: 885724-159-R-J1-PDC complex spheroid viability
Assay: Anticancer human tumor 885724-159-R-J1-PDC patient-derived pancreatic adenocarcinoma cell line growth inhibition [GQUAD]
Details: for IC50: curve of first compound; for viability, T/C: stronger effect = lower value
Method in brief: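 Tumor cells were grown as complex spheroids with HUVEC endothelial cells and mesenchymal stem cells as stroma. G-quadruplex stabilizers were combined with targeted agents over half-log dilutions from near the clinical Cmax, or from 10 microM.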

[1] = second compound 0.0316 µM, first compound 0.0316 µM
[2] = second compound 0.0316 µM, first compound 0.316 µM
[3] = second compound 0.1 µM, first compound 0.0316 µM
[4] = second compound 0.1 µM, first compound 0.316 µM
[5] = second compound 0.316 µM, first compound 0.0316 µM
[6] = second compound 0.316 µM, first compound 0.316 µM
[7] = second compound 1 µM, first compound 0.0316 µM
[8] = second compound 1 µM, first compound 0.316 µM
[9] = second compound 3.16 µM, first compound 0.0316 µM
[10] = second compound 3.16 µM, first compound 0.316 µM
[11] = second compound 10 µM, first compound 0.0316 µM
[12] = second compound 10 µM, first compound 0.316 µM
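Note: spheroids exposed to agents for seven days before readout.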
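Throughout, for viability, T/C: percent of vehicle control viability where 100% = DMSO wells.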

**Q.** What does the source list for `CCc1c2c(nc3ccc(O)cc13)-c1cc3c(c(=O)n1C2)COC(=O)[C@]3(O)CC` + CN(C)c1ccc(Nc2c3ccc(NC(=O)CCN4CCCC4)cc3nc3cc(NC(=O)CCN4CCCC4)ccc23)cc1?
**A.** IC50 (second compound 0.0316 µM): 56.8 nM; IC50 (second compound 0.1 µM): 59.5 nM; IC50 (second compound 0.316 µM): 48.8 nM; IC50 (second compound 1 µM): 23.8 nM; IC50 (second compound 3.16 µM): 21.7 nM; IC50 (second compound 10 µM): 20 nM; viability, T/C (second compound 0.0316 µM, first compound 0.000999 µM): 93.4%; viability, T/C (second compound 0.0316 µM, first compound 0.00316 µM): 78.9%; viability, T/C (second compound 0.0316 µM, first compound 0.00999 µM): 66.8%; viability, T/C [1]: 56.9%; viability, T/C (second compound 0.0316 µM, first compound 0.0999 µM): 50.8%; viability, T/C [2]: 9.22%; viability, T/C (second compound 0.1 µM, first compound 0.000999 µM): 93.7%; viability, T/C (second compound 0.1 µM, first compound 0.00316 µM): 72.2%; viability, T/C (second compound 0.1 µM, first compound 0.00999 µM): 63.6%; viability, T/C [3]: 59.7%; viability, T/C (second compound 0.1 µM, first compound 0.0999 µM): 51.1%; viability, T/C [4]: 7.61%; viability, T/C (second compound 0.316 µM, first compound 0.000999 µM): 83.1%; viability, T/C (second compound 0.316 µM, first compound 0.00316 µM): 73.1%; viability, T/C (second compound 0.316 µM, first compound 0.00999 µM): 63.9%; viability, T/C [5]: 48.1%; viability, T/C (second compound 0.316 µM, first compound 0.0999 µM): 51.6%; viability, T/C [6]: 9.1%; viability, T/C (second compound 1 µM, first compound 0.000999 µM): 83.3%; viability, T/C (second compound 1 µM, first compound 0.00316 µM): 65%; viability, T/C (second compound 1 µM, first compound 0.00999 µM): 56.6%; viability, T/C [7]: 47.4%; viability, T/C (second compound 1 µM, first compound 0.0999 µM): 41.8%; viability, T/C [8]: 9.11%; viability, T/C (second compound 3.16 µM, first compound 0.000999 µM): 67.1%; viability, T/C (second compound 3.16 µM, first compound 0.00316 µM): 60.4%; viability, T/C (second compound 3.16 µM, first compound 0.00999 µM): 53.7%; viability, T/C [9]: 42.7%; viability, T/C (second compound 3.16 µM, first compound 0.0999 µM): 40.1%; viability, T/C [10]: 8.41%; viability, T/C (second compound 10 µM, first compound 0.000999 µM): 71%; viability, T/C (second compound 10 µM, first compound 0.00316 µM): 70.1%; viability, T/C (second compound 10 µM, first compound 0.00999 µM): 50.2%; viability, T/C [11]: 42.9%; viability, T/C (second compound 10 µM, first compound 0.0999 µM): 39.2%; viability, T/C [12]: 9.18%

**Q.** `C=CC(=O)N1CCN(c2nc(=O)n(-c3c(C)ccnc3C(C)C)c3nc(-c4c(O)cccc4F)c(F)cc23)C(C)C1` (centres undefined) + CN(C)c1ccc(Nc2c3ccc(NC(=O)CCN4CCCC4)cc3nc3cc(NC(=O)CCN4CCCC4)ccc23)cc1 was tested. Which IC50 (second compound 0.0316 µM) did it give?
**A.** The IC50 was over 10000 nM.

**Q.** What about the IC50 (second compound 0.1 µM) of the same compound?
**A.** The IC50 was over 10000 nM.

**Q.** And the IC50 (second compound 0.316 µM)?
**A.** The IC50 was over 10000 nM.

**Q.** And the IC50 (second compound 1 µM)?
**A.** The IC50 was over 10000 nM.

**Q.** And the IC50 (second compound 3.16 µM)?
**A.** The IC50 was over 10000 nM.

**Q.** What about the IC50 (second compound 10 µM) of the same compound?
**A.** Its IC50 is over 10000 nM.

**Q.** What about the viability, T/C [1] of the same compound?
**A.** Its viability, T/C is 98.5%.

**Q.** And the viability, T/C (second compound 0.0316 µM, first compound 0.1 µM)?
**A.** The viability, T/C was 101%.

**Q.** And the viability, T/C [2]?
**A.** The viability, T/C was 96.2%.

**Q.** And the viability, T/C (second compound 0.0316 µM, first compound 1 µM)?
**A.** Its viability, T/C is 93.4%.

**Q.** And the viability, T/C (second compound 0.0316 µM, first compound 3.16 µM)?
**A.** Its viability, T/C is 103%.

**Q.** What about the viability, T/C (second compound 0.0316 µM, first compound 10 µM) of the same compound?
**A.** The viability, T/C was 95.6%.

**Q.** What about the viability, T/C [3] of the same compound?
**A.** The viability, T/C was 101%.

**Q.** What about the viability, T/C (second compound 0.1 µM, first compound 0.1 µM) of the same compound?
**A.** The viability, T/C was 106%.

**Q.** What about the viability, T/C [4] of the same compound?
**A.** The viability, T/C was 96.5%.

**Q.** What about the viability, T/C (second compound 0.1 µM, first compound 1 µM) of the same compound?
**A.** The viability, T/C was 98.5%.

**Q.** What about the viability, T/C (second compound 0.1 µM, first compound 3.16 µM) of the same compound?
**A.** The viability, T/C was 107%.

**Q.** And the viability, T/C (second compound 0.1 µM, first compound 10 µM)?
**A.** Its viability, T/C is 87.5%.

**Q.** What about the viability, T/C [5] of the same compound?
**A.** Its viability, T/C is 90.5%.

**Q.** And the viability, T/C (second compound 0.316 µM, first compound 0.1 µM)?
**A.** Its viability, T/C is 95.3%.

**Q.** What about the viability, T/C [6] of the same compound?
**A.** The viability, T/C was 82.6%.

**Q.** And the viability, T/C (second compound 0.316 µM, first compound 1 µM)?
**A.** The viability, T/C was 82.5%.

**Q.** What about the viability, T/C (second compound 0.316 µM, first compound 3.16 µM) of the same compound?
**A.** Its viability, T/C is 103%.

**Q.** What about the viability, T/C (second compound 0.316 µM, first compound 10 µM) of the same compound?
**A.** The viability, T/C was 89.2%.

**Q.** What about the viability, T/C [7] of the same compound?
**A.** The viability, T/C was 86.2%.

**Q.** And the viability, T/C (second compound 1 µM, first compound 0.1 µM)?
**A.** The viability, T/C was 79.4%.

**Q.** What about the viability, T/C [8] of the same compound?
**A.** The viability, T/C was 70.6%.

**Q.** And the viability, T/C (second compound 1 µM, first compound 1 µM)?
**A.** Its viability, T/C is 79.3%.

**Q.** What about the viability, T/C (second compound 1 µM, first compound 3.16 µM) of the same compound?
**A.** The viability, T/C was 85.3%.

**Q.** What about the viability, T/C (second compound 1 µM, first compound 10 µM) of the same compound?
**A.** The viability, T/C was 82.3%.

**Q.** And the viability, T/C [9]?
**A.** The viability, T/C was 67%.

**Q.** What about the viability, T/C (second compound 3.16 µM, first compound 0.1 µM) of the same compound?
**A.** Its viability, T/C is 74.1%.

**Q.** And the viability, T/C [10]?
**A.** The viability, T/C was 84.4%.

**Q.** And the viability, T/C (second compound 3.16 µM, first compound 1 µM)?
**A.** Its viability, T/C is 69.4%.

**Q.** And the viability, T/C (second compound 3.16 µM, first compound 3.16 µM)?
**A.** Its viability, T/C is 83.8%.

**Q.** What about the viability, T/C (second compound 3.16 µM, first compound 10 µM) of the same compound?
**A.** The viability, T/C was 79.6%.

**Q.** And the viability, T/C [11]?
**A.** The viability, T/C was 64.8%.

**Q.** And the viability, T/C (second compound 10 µM, first compound 0.1 µM)?
**A.** Its viability, T/C is 76%.

**Q.** And the viability, T/C [12]?
**A.** Its viability, T/C is 85.2%.

**Q.** What about the viability, T/C (second compound 10 µM, first compound 1 µM) of the same compound?
**A.** The viability, T/C was 84.6%.

**Q.** What about the viability, T/C (second compound 10 µM, first compound 3.16 µM) of the same compound?
**A.** The viability, T/C was 87.6%.

**Q.** And the viability, T/C (second compound 10 µM, first compound 10 µM)?
**A.** The viability, T/C was 73.3%.
